The text below walks through data of US5686104A, “Stable oral CI-981 formulation and process of preparing same” (Warner-Lambert Company, priority 1994, dated 1997).

Each structure is given as a SMILES string. Where a name gives a salt, the structure may show the parent alone.

For data set [1], the system named is sterol synthesis (rat liver homogenate). As to conditions: read-out: IC50, concentration required for 50% inhibition of sterol synthesis, one-hour period, data disclosed in U.S. Pat. No. 5,273,995; cited from earlier work.
A short description of data set [2]: Stability of the hydroxy acid compounds in acidic environment, under light, or in wet-granulated compositions (statement). The data set is classed as physicochemical. The settings on record: no calcium carbonate.

As for `CC(C)c1c(C(=O)Nc2ccccc2)c(-c2ccccc2)c(-c2ccc(F)cc2)n1CC[C@H](O)C[C@H](O)CC(=O)O` [[S-(R*R*)] isomer], the IC50 in data set [1] was 440 nM.
In the case of `CC(C)c1c(C(=O)Nc2ccccc2)c(-c2ccccc2)c(-c2ccc(F)cc2)n1CC[C@@H](O)C[C@@H](O)CC(=O)O` (relative stereo) [Racemate], the IC50 in data set [1] is 45 nM.
For the compound `CC(C)c1c(C(=O)Nc2ccccc2)c(-c2ccccc2)c(-c2ccc(F)cc2)n1CC[C@@H](O)C[C@@H](O)CC(=O)O` [CI-981 Hemi-Calcium, [R-(R*,R*)]-2-(4-fluorophenyl)-β,δ-dihydroxy-5-(1-methylethyl)-3-phenyl-4-[(phenylamino)carbonyl]-1H-pyrrole-1-heptanoic acid hemicalcium salt], the “degradation in compositions prepared by the wet-granulation method” value in data set [2] is on record as “degrades rapidly”. In data set [1], the IC50 is 4.4 nM.
